Results published in patent publication US20110093959A1, “CRYPTOTIS PARVA SCREENING MODEL FOR ANTIEMETIC POTENTIAL” (priority 2008, published 2011).
Where “and” joins values, the source holds several entries; their conditions need not be identical. Equal values may be shown once.

What was measured:
Type in all cases: in vivo, Cryptotis parva
[1] = tested on: CIS-induced emesis in the Least Shrew; assay: Tropisetron, Δ^9-THC and dexamethasone alone or in combination against CIS (20 mg/kg)-induced emesis, 60 min
Experimental: Briefly, all animals were randomly divided into two groups. On the test day, shrews were habituated to the laboratory environment for at least 1 hr prior to experimentation. […] All drugs were administered at a volume of 0.1 ml/10 g body weight. Immediately following the second injection, each shrew was placed in the observation cage, and both the number of animals vomiting per group and the frequency of vomiting (oral ejections of food or liquid) were recorded for the next 60 min
Poisson regression and logistic regression analyses were employed for two-way analysis of vomiting frequency and protection from emesis, respectively. […] Data regarding the frequency of emesis were analyzed by the Kruskal-Wallis nonparametric one-way analysis of variance (ANOVA), and post hoc analysis by Dunn's multiple comparisons test. The incidence of emesis (number of animals vomiting) was analyzed by Fisher's exact test to determine whether there were differences between groups, and when appropriate, pairwise comparisons were also made. A p value of<0.05 was necessary to achieve statistical significance.

[2] = tested on: CIS-induced vomiting in the Least Shrew; assay: THC and SR141716A on CIS (10 mg/kg)-induced vomiting, acute and delayed phase; conditions: CIS 10 mg/kg i.p., Δ^9-THC 2.5 mg/kg i.p., SR141716A 2 mg/kg i.p.
Fos = Fos expression in the dorsal vagal complex resulting from CIS-induced vomiting
Experimental: After the appropriate time period for acute or delayed phase vomiting, shrews were anesthetized with a lethal dose of pentobarbital (100 mg/kg) and perfused transcardially via blunted needle with a peristaltic pump. The shrew was perfused with ice cold 4% paraformaldehyde and 5% picric acid in pH 7.4, 0.1 M phosphate buffer (10 min). Brains were removed and stored in 30% sucrose in 0.1 M PB overnight, then embedded in blocks of 12% gelatin in 30% sucrose/PB. The blocks were postfixed for 3 hr in 2% paraformaldehyde/PB, then rinsed and immersed in 30% sucrose/PB until they sank (usually 1-2 hr). The brain block was cut sagittally on a freezing benchtop microtome (Leica) at 30 μm into 5 series, and stored in PB with 0.03% sodium azide.
Immunolabeling was accomplished by blocking a free-floating series with 10% normal horse serum (NHS) and 3% hydrogen peroxide in PB with 0.3% Tri-ton X-100 (TX) for 30 min. After rinsing in PB, tissue was put in sheep anti-Fos polyclonal antibody (Chemicon/Millipore, Temecula, Calif.; 1:600), with 5% NHS and 0.3% TX in PB, and incubated for about 42 hr at room temperature (RT) with gentle shaking. After rinsing in PB, the tissue was placed in biotinylated donkey anti-sheep IgG secondary antibody (Jackson Immunoresearch, West Grove, Pa.; 1:600) diluted in the same diluent described for the primary antibody, and the tissue incubated at RT with shaking for 75 min Tissue was then rinsed and incubated for 60 min in HRP-conjugated avidin-biotin complex (Vector Labs, Burlingame, Calif.; Vectastain kit diluted 1:2) in PB. Tissue was then rinsed twice in PB, then once in imidazole-acetate buffer (0.1 M, pH 7.4), then reacted for 6 min in 0.0006% hydrogen peroxide with 2% nickel ammonium sulfate-enhanced diaminobenzidine (DAB, 0.05% in 0.1 M imidazole-acetate buffer). All reagents for DAB processing were purchased from Sigma-Aldrich. […]

[3] = 1 mg/kg i.p., administered alone
[4] = 5 mg/kg i.p., administered alone
[5] = Δ^9-THC 1 mg/kg with 0.1 mg/kg tropisetron
[6] = Δ^9-THC 5 mg/kg with 0.025 mg/kg tropisetron
[7] = Δ^9-THC 5 mg/kg with 0.1 mg/kg tropisetron
[8] = Δ^9-THC 5 mg/kg with 0.25 mg/kg tropisetron

CCCCCc1cc(O)c2c(c1)OC(C)(C)[C@@H]1CCC(C)=C[C@@H]21 [Δ^9-THC, Δ^9-tetrahydrocannabinol]
reduction in frequency of CIS-induced emesis ([1]; 0.25 mg/kg i.p., administered alone): 59.3%
reduction in frequency of CIS-induced emesis ([1]; 0.5 mg/kg i.p., administered alone): 66.7%
reduction in frequency of CIS-induced emesis [1, 3]: 83.7%
reduction in percentage of shrews vomiting in response to CIS [1, 3]: 64%
reduction in percentage of shrews vomiting in response to CIS ([1]; 2.5 mg/kg i.p., administered alone): 83.3% and 83%
reduction in frequency of CIS-induced emesis [1, 4]: 96.7%
reduction in percentage of shrews vomiting in response to CIS [1, 4]: 92% and 91.6%
reduction in percentage of shrews vomiting in response to CIS ([1]; 10 mg/kg i.p., administered alone): 100%
additive or synergistic effect on percentage of animals vomiting ([1]; tested combinations of Δ^9-THC and tropisetron): no additive or synergistic antiemetic effects
reduction in frequency of vomiting ([1]; Δ^9-THC 0.25 mg/kg coadministered with 5 mg/kg DEX): 55.5%
reduction in percentage of shrews vomiting in response to CIS ([1]; Δ^9-THC 0.25 mg/kg in shrews pretreated with 5 mg/kg DEX): 42%
reduction in frequency of CIS-induced emesis ([1]; Δ^9-THC 0.25 mg/kg with 0.025 mg/kg tropisetron): 72.6%
reduction in frequency of CIS-induced emesis ([1]; Δ^9-THC 0.25 mg/kg with 0.1 mg/kg tropisetron): 69.7%
reduction in frequency of CIS-induced emesis ([1]; Δ^9-THC 0.5 mg/kg with 0.025 mg/kg tropisetron): 56.1%
reduction in frequency of CIS-induced emesis ([1]; Δ^9-THC 0.5 mg/kg with 0.1 mg/kg tropisetron): 74.6%
reduction in frequency of CIS-induced emesis ([1]; Δ^9-THC 1 mg/kg with 0.025 mg/kg tropisetron): 61.6%
reduction in frequency of CIS-induced emesis [1, 5]: 88%
reduction in number of shrews vomiting [1, 5]: 77%
reduction in frequency of CIS-induced emesis ([1]; Δ^9-THC 1 mg/kg with 0.25 mg/kg tropisetron): 91%
reduction in percentage of shrews vomiting in response to CIS ([1]; Δ^9-THC 2.5 mg/kg with DEX 0.25 mg/kg): 77%
reduction in percentage of shrews vomiting in response to CIS ([1]; Δ^9-THC 2.5 mg/kg with DEX 1 mg/kg): 92%
reduction in percentage of shrews vomiting in response to CIS ([1]; Δ^9-THC 2.5 mg/kg with DEX 5 mg/kg): 79%
reduction in percentage of shrews vomiting in response to CIS ([1]; Δ^9-THC 2.5 mg/kg with DEX 10 mg/kg): 77%
reduction in percentage of shrews vomiting in response to CIS ([1]; Δ^9-THC 2.5 mg/kg with DEX 20 mg/kg): 50%
reduction in frequency of CIS-induced emesis [1, 6]: 86.3%
reduction in percentage of shrews vomiting in response to CIS [1, 6]: 75%
reduction in frequency of CIS-induced emesis [1, 7]: 97.7%
reduction in percentage of shrews vomiting in response to CIS [1, 7]: 88%
reduction in frequency of CIS-induced emesis [1, 8]: 100%
reduction in percentage of shrews vomiting in response to CIS [1, 8]: 100%
reduction in percentage of shrews vomiting in response to CIS ([1]; Δ^9-THC 5 mg/kg with DEX 0.25 mg/kg): 83%
reduction in percentage of shrews vomiting in response to CIS ([1]; Δ^9-THC 5 mg/kg with DEX 1 mg/kg): 92%
reduction in percentage of shrews vomiting in response to CIS ([1]; Δ^9-THC 5 mg/kg with DEX 5 mg/kg): 77%
reduction in percentage of shrews vomiting in response to CIS ([1]; Δ^9-THC 5 mg/kg with DEX 10 mg/kg): 92%
reduction in percentage of shrews vomiting in response to CIS ([1]; Δ^9-THC 5 mg/kg with DEX 20 mg/kg): 77%
reduction in percentage of shrews vomiting in response to CIS ([1]; Δ^9-THC 10 mg/kg with DEX 0.25 mg/kg): 92%
reduction in percentage of shrews vomiting in response to CIS ([1]; Δ^9-THC 10 mg/kg with DEX 1 mg/kg): 83%
reduction in percentage of shrews vomiting in response to CIS ([1]; Δ^9-THC 10 mg/kg with DEX 5 mg/kg): 67%
reduction in percentage of shrews vomiting in response to CIS ([1]; Δ^9-THC 10 mg/kg with DEX 10 mg/kg): 92%
reduction in percentage of shrews vomiting in response to CIS ([1]; Δ^9-THC 10 mg/kg with DEX 20 mg/kg): 75%
combination efficacy in reducing the frequency of emesis ([1]; Δ^9-THC 0.25 and 0.5 mg/kg combined with tropisetron 0.025 and 0.1 mg/kg): significantly greater additive efficacy
effect on frequency of emesis ([1]; Δ^9-THC combined with 1 mg/kg or 5 mg/kg tropisetron): failed to produce significant reductions
additive or synergistic antiemetic activity ([1]; Δ^9-THC combined with DEX, at the doses tested): no significant additive or synergistic antiemetic activity
Number vomited per total in group ([2]; Acute phase): 1/8
Number vomited per total in group ([2]; Delayed phase): 2/9
number of Fos-immunopositive nuclei vs vehicle injections (Fos; acute phase of CIV, NTS, AP and DMNX): significantly (P<0.05) reduced
number of Fos-immunopositive nuclei vs vehicle-injected animals (Fos; delayed phase, NTS and DMNX): significantly fewer
